The text below walks through data of ChEMBL document CHEMBL1201862, “PubChem BioAssay data set” (2004).

Some test systems named below: CAKI-1; 786-0; OVCAR-5; SF-539; HT-29; HCT-116; OVCAR-8; SNB-75; SF-295; SF-268; MDA-N; Hs-578T; OVCAR-4; SK-MEL-5; U-251; HCC 2998; HOP-92; SR; MDA-MB-231; NCI-H522.
What all share (test): NCI anticancer screen, dose series, 48 h

Molecules are shown by their SMILES.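 48-hour exposure; five concentrations; linearly interpolated endpoints. Here, GI50 denotes the concentration required for 50% inhibition of growth.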 Activity calls are given as the source filed them. No stated cut-off is given here; in the data, active = GI50 up to about 1.1 µM and inactive = higher. Non-standard residues stand in square brackets, D forms with d. Residues, ends and D or L forms follow the SMILES beside them. *: point of attachment. X30 = COC1=CC(=O)N(C(=O)[C@@H](O*)C(C)C)[C@H]1Cc1ccccc1; NMeL = CN[C@@H](CC(C)C)C(=O)O; Cbz = O=C(OCc1ccccc1)*

With `Cc1cc(O)nc(NN2C(Cl)C(=O)C2c2ccc(Cl)cc2)n1` (stereo unspecified), the GI50 in the assay on CAKI-1 was 15.7 µM (inactive); with 786-0, 15.6 µM (inactive); in the assay with OVCAR-5, 40 µM (inactive); in the assay with SF-539 it was 16.3 µM (inactive); with HT-29, 18 µM (inactive); in the assay with HCT-116 it was 11.3 µM (inactive). Moreover, the GI50 with OVCAR-8 was 19.1 µM (inactive); in the assay on SNB-75, 17.4 µM (inactive); with SF-295, 8.61 µM (inactive); with SF-268, 19.8 µM (inactive); in the assay on MDA-N, 8.53 µM (inactive); in the assay on Hs-578T, 30 µM (inactive). Moreover, the GI50 in the assay on OVCAR-4 is 22.9 µM (inactive); in the assay with SK-MEL-5 it was 12.8 µM (inactive); with U-251 it was 20.5 µM (inactive); with HCC 2998, 17 µM (inactive); in the assay with HOP-92, 12.9 µM (inactive); in the assay with SR it was 1.27 µM (inactive). The GI50 in the assay with MDA-MB-231 was 26.4 µM (inactive).

Take `C/C(=N\NC(=S)N1CC2CCC(CC2)C1)c1cccc(C)n1`: the GI50 in the assay with CAKI-1 was 1.11 µM (active); in the assay on 786-0, 1.08 µM (active); in the assay on OVCAR-5, 1.46 µM (inactive); with SF-539, 0.378 µM (active); with HT-29, 0.01 µM (active); in the assay with HCT-116, < 0.0445 µM (active). Also, the GI50 is 0.294 µM (active) in the assay on OVCAR-8; 2.64 µM (inactive) with SNB-75; 0.445 µM (active) in the assay on SF-295; 0.533 µM (active) with SF-268; 2.82 µM (inactive) with MDA-N; 0.00432 µM (active) in the assay with NCI-H522. Further, the GI50 in the assay with Hs-578T is 4.11 µM (inactive); with OVCAR-4 it was 0.352 µM (active); in the assay on SK-MEL-5, 1.96 µM (inactive); with U-251, 0.551 µM (active); in the assay with HCC 2998 it was 2.16 µM (inactive); with HOP-92 it was 2.2 µM (inactive). The GI50 in the assay with MDA-MB-231 is 0.224 µM (active).

`CC(NNC(=O)c1ccncc1)c1ccccc1` (stereo unspecified): the GI50 with CAKI-1, in the assay on 786-0, with OVCAR-5, with SF-539, with HT-29 and in the assay on HCT-116 was > 100 µM (inactive) each time. For the same molecule, the GI50 in the assay on OVCAR-8, with SNB-75, in the assay on SF-295, with SF-268, with MDA-N and in the assay on Hs-578T was > 100 µM (inactive) throughout. In addition, the GI50 in the assay with OVCAR-4, in the assay with SK-MEL-5, in the assay on U-251, with HCC 2998, in the assay with HOP-92 and in the assay on SR was > 100 µM (inactive) in each case. Besides, in the assay with MDA-MB-231, the GI50 is > 100 µM (inactive).

`CCCCCCC(=O)O[C@H]1CC[C@H]2[C@@H]3CCC4C/C(=N/NC(=O)c5cccc6c(=O)c7ccccc7[nH]c56)C=C(C)[C@]4(C)[C@H]3CC[C@]12C` (stereo partly specified): the GI50 in the assay with CAKI-1, in the assay with 786-0, with OVCAR-5, in the assay on SF-539, in the assay on HT-29 and in the assay with HCT-116 was > 25 µM (inactive) each time. The GI50 in the assay on OVCAR-8, in the assay on SNB-75, in the assay on SF-295, with SF-268, with MDA-N and in the assay on Hs-578T was > 25 µM (inactive) each time. In addition, the GI50 with OVCAR-4, in the assay on SK-MEL-5, with U-251, with HCC 2998, in the assay with HOP-92 and with SR was > 25 µM (inactive) in each case. Moreover, the GI50 with MDA-MB-231 was > 25 µM (inactive).

With `O=C1/C(=C\c2ccc(Br)cc2)CCCc2ccccc21`, the GI50 with CAKI-1 was 29.3 µM (inactive); with 786-0, 14.6 µM (inactive); with OVCAR-5, 38.6 µM (inactive); with SF-539 it was 15.5 µM (inactive); with HT-29, 15 µM (inactive); in the assay on HCT-116 it was 12.4 µM (inactive). Also, the GI50 in the assay on OVCAR-8 is 15 µM (inactive); in the assay with SNB-75, 18.8 µM (inactive); in the assay with SF-295, 22 µM (inactive); in the assay with SF-268, 16.9 µM (inactive); in the assay on MDA-N, 17.4 µM (inactive); in the assay with Hs-578T, 17.3 µM (inactive). Besides, the GI50 in the assay with OVCAR-4 is 12.3 µM (inactive); in the assay on U-251, 15 µM (inactive); with HCC 2998 it was 14.7 µM (inactive); in the assay with HOP-92, 19.1 µM (inactive); with SR, 23 µM (inactive); in the assay with MDA-MB-231 it was 18.5 µM (inactive).

Take `C=CCOc1ccc(N)c([N+](=O)[O-])c1`: the GI50 in the assay on CAKI-1, in the assay with 786-0, in the assay on OVCAR-5, with SF-539, in the assay with HT-29 and in the assay with HCT-116 was > 100 µM (inactive) each time. The GI50 in the assay with OVCAR-8 was > 100 µM (inactive); with SNB-75 it was 89.3 µM (inactive); in the assay with SF-295, > 100 µM (inactive); in the assay on SF-268 it was > 100 µM (inactive); with MDA-N, > 100 µM (inactive); in the assay with NCI-H522, 63.4 µM (inactive). The GI50 in the assay with Hs-578T was > 100 µM (inactive); in the assay on SK-MEL-5, > 100 µM (inactive); in the assay on U-251, > 100 µM (inactive); in the assay on HCC 2998, > 100 µM (inactive); in the assay with SR, > 100 µM (inactive); with MDA-MB-231, > 10 µM (inactive).

Take `COC1=CC(=O)N(C(=O)[C@@H](OC(=O)[C@@H]2CCCN2C(=O)[C@@H]2CCCN2C(=O)[C@H](CC(C)C)N(C)C(=O)[C@@H](NC(=O)[C@@H](NC(=O)OCc2ccccc2)C(C)C)C(C)C)C(C)C)[C@H]1Cc1ccccc1` (Cbz-VV[NMeL]PP-X30): the GI50 is > 100 µM (inactive) in the assay with CAKI-1; 23.3 µM (inactive) in the assay with 786-0; > 100 µM (inactive) in the assay on OVCAR-5; 15 µM (inactive) in the assay with SF-539; > 100 µM (inactive) in the assay with HT-29; 44.6 µM (inactive) with HCT-116. The GI50 in the assay on OVCAR-8 was > 100 µM (inactive); in the assay on SNB-75 it was 2.37 µM (inactive); in the assay with SF-295, 20.3 µM (inactive); in the assay with SF-268, > 100 µM (inactive); in the assay with MDA-N, > 100 µM (inactive); in the assay with NCI-H522, > 100 µM (inactive). The GI50 in the assay with Hs-578T is > 100 µM (inactive); in the assay on OVCAR-4, > 100 µM (inactive); in the assay on U-251 it was 24.9 µM (inactive); in the assay on HCC 2998, > 100 µM (inactive); in the assay on HOP-92 it was 20.5 µM (inactive); in the assay on MDA-MB-231, 15 µM (inactive).

Consider `Cc1ccc(S(=O)(=O)N/N=C2\C(=O)Nc3cc(O)c(C(=O)O)cc32)cc1`, for which the GI50 in the assay on CAKI-1, with 786-0, with OVCAR-5, with HT-29, with HCT-116 and in the assay on OVCAR-8 was > 100 µM (inactive) throughout. For the same molecule, the GI50 in the assay with SNB-75, with SF-295, in the assay on SF-268, in the assay on MDA-N, in the assay on NCI-H522 and in the assay with Hs-578T was > 100 µM (inactive) throughout. In addition, the GI50 with OVCAR-4, in the assay on SK-MEL-5, in the assay on U-251, in the assay with HCC 2998, with SR and in the assay on MDA-MB-231 was > 100 µM (inactive) throughout.

Regarding `CCCCSC1=N/C(=C\c2ccc(N(C)C)cc2)C(NN)=N1`, the GI50 in the assay on CAKI-1, in the assay with 786-0, in the assay on OVCAR-5, in the assay on HT-29, in the assay with HCT-116 and with OVCAR-8 was > 100 µM (inactive) in each case. For the same molecule, the GI50 in the assay with SNB-75, in the assay with SF-295, in the assay with SF-268, with MDA-N, with NCI-H522 and in the assay on Hs-578T was > 100 µM (inactive) throughout. Further, the GI50 in the assay on OVCAR-4, in the assay on U-251, in the assay with HCC 2998, in the assay on HOP-92 and in the assay with MDA-MB-231 was > 100 µM (inactive) each time.

For the molecule `Cc1sc2ccccc2[n+]1CCC(=O)O`, the GI50 in the assay with CAKI-1, in the assay on 786-0, in the assay with OVCAR-5, with SF-539, with HT-29 and with HCT-116 was > 100 µM (inactive) each time. In addition, the GI50 in the assay on OVCAR-8, in the assay with SNB-75, in the assay with SF-295, in the assay with SF-268, in the assay with MDA-N and in the assay with NCI-H522 was > 100 µM (inactive) in each case. Besides, the GI50 in the assay on Hs-578T, in the assay on OVCAR-4, with SK-MEL-5, with U-251, in the assay on HOP-92 and in the assay on MDA-MB-231 was > 100 µM (inactive) throughout.

Regarding `CC(C)NC(=O)N(Nc1ccccc1)C(C)(C)C`, the GI50 in the assay on CAKI-1, in the assay on 786-0, in the assay on OVCAR-5, with SF-539, in the assay on HT-29 and in the assay on HCT-116 was > 100 µM (inactive) in each case. In addition, the GI50 in the assay with OVCAR-8 is > 100 µM (inactive); in the assay with SNB-75 it was 73.8 µM (inactive); in the assay with SF-295 it was > 100 µM (inactive); in the assay on MDA-N, > 100 µM (inactive); with Hs-578T it was > 100 µM (inactive); in the assay with OVCAR-4, > 100 µM (inactive). For the same molecule, the GI50 with SK-MEL-5, in the assay with U-251, with HCC 2998, in the assay with HOP-92, with SR and in the assay on MDA-MB-231 was > 100 µM (inactive) in each case.
